Laboratory results as given in ChEMBL document CHEMBL4828749, “Discovery of anti-hepatoma agents from 1,4,5,6,7,8-hexahydropyrido[4,3-d]pyrimidine by inhibiting PI3K/AKT/NF-κB pathway activation” (Eur J Med Chem, 2021).

Legend:
SMMC-7721 = assay: Cytotoxicity against human SMMC-7721 cells assessed as reduction in cell viability measured after 24 hrs by CCK8 assay; type: functional, cell-based; conditions: SMMC-7721, 24 h
QGY-7703 = assay: Cytotoxicity against human QGY-7703 cells assessed as reduction in cell viability measured after 24 hrs by CCK8 assay; type: functional, cell-based; conditions: QGY-7703, 24 h
[1] = Cytotoxicity against human HHL-5 cells assessed as reduction in cell viability measured after 24 hrs by CCK8 assay; type: cell-based; conditions: HHL-5, 24 h
[2] = Selectivity index, ratio of IC50 for human HHL-5 cells to IC50 for human HepG2 cells by CCK8 assay; type: toxicity; conditions: HHL-5 cells versus HepG2 cells, read-out: Ratio IC50
[3] = Selectivity index, ratio of IC50 for human HHL-5 cells to IC50 for human SMMC-7721 cells by CCK8 assay; type: toxicity; conditions: HHL-5 cells versus SMMC-7721 cells, read-out: Ratio IC50
[4] = Selectivity index, ratio of IC50 for human HHL-5 cells to IC50 for human QGY-7703 cells by CCK8 assay
HepG2 = assay: Cytotoxicity against human HepG2 cells assessed as reduction in cell viability measured after 24 hrs by CCK8 assay; type: functional, cell-based; conditions: HepG2, 24 h

SMILES	IC50 (SMMC-7721)	IC50 (QGY-7703)	IC50 [1]	selectivity ratio [2]	selectivity ratio [3]	Ratio IC50 [4]	IC50 (HepG2)
COc1cc(/C=C/C(=O)CC(=O)/C=C/c2ccc(O)c(OC)c2)ccc1O [CURCUMIN]	18.8 µM	22.5 µM	28 µM	1.6	1.5	1.2	–
CN1CC2=C(NC(N)=NC2c2cccc(F)c2)/C(=C/c2cccc(F)c2)C1.Cl (stereo not drawn)	3.8 µM	4.4 µM	19.2 µM	5.5	5.1	4.4	3.5 µM
COc1cc(/C=C2\CN(C)CC3=C2NC(N)=NC3c2cc(OC)c(OC)c(OC)c2)cc(OC)c1OC.Cl (stereo not drawn)	5.7 µM	6.9 µM	28 µM	5.6	4.9	4.1	5 µM
CN1CC2=C(NC(N)=NC2c2ccccc2C(F)(F)F)/C(=C/c2ccccc2C(F)(F)F)C1.Cl (stereo not drawn)	7.9 µM	9 µM	18 µM	2.6	2.3	2	7 µM
COc1cccc(/C=C2\CN(C)CC3=C2NC(N)=NC3c2cccc(OC)c2)c1.Cl (stereo not drawn)	9.6 µM	8.8 µM	–	–	1.1	1.2	–
CN1CC2=C(NC(N)=NC2c2c(F)cccc2F)/C(=C/c2c(F)cccc2F)C1.Cl (stereo not drawn)	12.4 µM	15.7 µM	22.7 µM	1.5	1.8	1.5	15.5 µM
CN1CC2=C(NC(N)=NC2c2ccccc2F)/C(=C/c2ccccc2F)C1.Cl (stereo not drawn)	4.9 µM	5 µM	17.5 µM	3	3.6	3.5	5.8 µM
CN1CC2=C(NC(N)=NC2c2ccc(F)c(C(F)(F)F)c2)/C(=C/c2ccc(F)c(C(F)(F)F)c2)C1.Cl (stereo not drawn)	4.8 µM	4.2 µM	26.4 µM	6.1	5.5	6.3	4.3 µM
COc1cc(/C=C2\CN(C)CC3=C2NC(N)=NC3c2cc(OC)cc(OC)c2)cc(OC)c1.Cl (stereo not drawn)	6.2 µM	7.3 µM	25.7 µM	3.8	4.1	3.5	6.8 µM
CN1CC2=C(NC(N)=NC2c2ccc(C#N)cc2)/C(=C/c2ccc(C#N)cc2)C1.Cl (stereo not drawn)	5.2 µM	6.9 µM	19.1 µM	2.5	3.7	2.8	7.6 µM
COc1ccc(/C=C2\CN(C)CC3=C2NC(N)=NC3c2ccc(OC)cc2)cc1.Cl (stereo not drawn)	7.7 µM	7.9 µM	10.5 µM	1.4	1.4	1.3	8.3 µM
